Data on one compound can be found in patent publication US20220390432A1, “METHODS OF CHARACTERIZING AND UTILIZING AGENT-CONDENSATE INTERACTIONS” (Whitehead Institute for Biomedical Research, priority 2019, published 2022).

“Also recorded” adds a separate entry of the source.

Series [1] concerns DNA in MED1 or HP1α droplets. As to the kind of experiment: Cisplatin-DNA engagement assay. The format is biochemical. The conditions noted are these: size-shift on a bioanalyzer; cisplatin 0-2 mM. The method, then:
MED1-IDR-BFP and HP1a-BFP droplets were formed by mixing 10 μM protein with the droplet formation buffer containing 50 mM Tris-HCl pH 7.5, 100 mM NaCl, 10% PEG 8000, 10% glycerol, 1 mM DTT and 5 ng/ul DNA in a 10 μl reaction volume. The droplet reactions were incubated for 30 min at RT. Next, increasing concentrations of activated Cisplatin (0, 0.5, 0.75, 1, 1.5, and 2 mM) were added to the droplet reactions and incubated for another 30 min at RT. The reactions are then treated with 1 μl of Proteinase K (Invitrogen, 20 mg/ml) for 4 hr at 55° C. Platination of DNA was visualized by size-shift on a bioanalyzer.

For the next series, the target named is T1, MED1 (Homo sapiens, UniProt Q15648).
T1 construct: MED1—amino acids 600-1581; 6xHis (N); made in house; host or cells: LOBSTR cells (E. coli)
T1 sequence (Q15648 600-1581): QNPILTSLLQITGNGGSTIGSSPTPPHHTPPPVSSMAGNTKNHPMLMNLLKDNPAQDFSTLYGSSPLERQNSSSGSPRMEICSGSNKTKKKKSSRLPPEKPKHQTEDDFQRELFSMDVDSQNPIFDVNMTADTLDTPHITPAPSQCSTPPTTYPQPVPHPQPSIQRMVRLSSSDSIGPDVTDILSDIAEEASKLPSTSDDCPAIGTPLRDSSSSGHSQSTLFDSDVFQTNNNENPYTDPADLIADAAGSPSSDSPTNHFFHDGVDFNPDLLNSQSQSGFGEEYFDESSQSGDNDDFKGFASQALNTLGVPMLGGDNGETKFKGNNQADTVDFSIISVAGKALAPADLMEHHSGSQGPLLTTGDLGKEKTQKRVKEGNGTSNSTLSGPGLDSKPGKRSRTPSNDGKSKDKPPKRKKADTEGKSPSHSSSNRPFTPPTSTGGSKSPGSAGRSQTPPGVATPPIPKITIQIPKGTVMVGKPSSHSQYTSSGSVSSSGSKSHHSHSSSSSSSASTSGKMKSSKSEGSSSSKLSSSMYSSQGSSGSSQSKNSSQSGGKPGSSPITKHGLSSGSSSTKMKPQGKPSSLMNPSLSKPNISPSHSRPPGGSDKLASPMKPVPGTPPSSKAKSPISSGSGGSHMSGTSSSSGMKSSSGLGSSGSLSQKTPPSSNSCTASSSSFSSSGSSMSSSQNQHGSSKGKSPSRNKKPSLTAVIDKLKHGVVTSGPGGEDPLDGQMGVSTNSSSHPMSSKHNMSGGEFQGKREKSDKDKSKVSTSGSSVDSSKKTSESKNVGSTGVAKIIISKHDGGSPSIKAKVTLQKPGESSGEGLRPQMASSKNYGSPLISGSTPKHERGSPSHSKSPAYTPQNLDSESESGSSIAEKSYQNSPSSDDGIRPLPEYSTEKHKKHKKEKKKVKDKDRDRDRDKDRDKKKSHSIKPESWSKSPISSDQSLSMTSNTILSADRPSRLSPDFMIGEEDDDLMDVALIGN
Description: In vitro droplet assay, small molecule partitioning into MED1 condensates. The format is binding. Particulars: confocal fluorescence; Example 2: 125 mM NaCl, 10% PEG, 10 μM protein; fluorescent or fluorescently labeled drug. The protocol:
(§1) Recombinant BFP, GFP, or mCherry fusion proteins were concentrated and desalted to an appropriate protein concentration and 125 mM NaCl using Amicon Ultra centrifugal filters (30K MWCO, Millipore). Recombinant protein was added too. […] The protein solution was immediately loaded onto glass bottom 384 well plate (Cellvis P384-1.5H-N) and imaged with an Andor confocal microscope with a 150× objective. Unless indicated, images presented are of droplets settled on the glass coverslip.
Drug and small molecule concentrations used in the droplet experiments are as follows:
To analyze in vitro droplet experiments, custom Python scripts using the scikit-image package were written to identify droplets and characterize their size, shape and intensity. Droplets were segmented from average images of captured channels on various criteria: (1) an intensity threshold that was three s.d. above the mean of the image; (2) size thresholds (20 pixel minimum droplet size); and (3) a minimum circularity (circularity=4π·areaperimeter2) (circularity=4π·areaperimeter2) of 0.8 (1 being a perfect circle). After segmentation, mean intensity for each droplet was calculated while excluding pixels near the phase interface, and background-corrected by subtracting intensity of dark images of droplet formation buffer only. Droplets identified in the channel of the fluorescent protein from ten independent fields of view were quantified for each experiment. The maximum intensity of signal within the droplets was calculated for each channel, the maximum intensity in the drug channel was termed “maximum drug intensity”. To obtain the intensity of drug or dye alone in the diffuse state (termed “diffuse drug intensity”), the compound was added to droplet formation buffer at same concentration used in the droplet assay. This was then imaged on a confocal fluorescent microscope. The resulting image was processed in FIJI to obtain the fluorescent intensity of the field. To obtain the fluorescent intensity of protein droplets that bleed through in the drug channel (termed “background intensity”) protein droplets were imaged in the fluorescent channel in which the drug fluoresces and processed as above to obtain the average maximum intensity within the droplet across 10 images. The enrichment ratio was obtained by the following formula [(maximum drug intensity)−(background intensity)]/(diffuse drug intensity). The box plots show the distributions of all droplets. Each dot represents an individual droplet.

Series [2] in a line: Droplet formation assay of small molecule alone without any protein. Particulars: without any protein added. It counts as physicochemical. The method, then: Recombinant BFP, GFP, or mCherry fusion proteins were concentrated and desalted to an appropriate protein concentration and 125 mM NaCl using Amicon Ultra centrifugal filters (30K MWCO, Millipore). […] […] The protein solution was immediately loaded onto glass bottom 384 well plate (Cellvis P384-1.5H-N) and imaged with an Andor confocal microscope with a 150× objective. Unless indicated, images presented are of droplets settled on the glass coverslip.

Series [3] relates to MED1 genomic occupancy in HCT116 cells. Description: MED1 ChIP-seq in HCT116 cells. It counts as cell-based, human. Particulars: 50 μM cisplatin for 6 hours.
The test system of series [4] is platinated DNA in HCT116 cells. As to the kind of experiment: Cisplatin/condensate co-immunofluorescence. Particulars: HCT116, 50 μM cisplatin for 6 hours. It counts as cell-based, human. The protocol: HCT116 cells were plated in 24-well plate at 50 k cells per well to yield 100 k cells after 21 hours (doubling time of HCTs). Cells were permeabilized using a solution of Tx100 in media at 0.55 pmol/cell for 12 minutes at 37° C. Cells were then washed with 500 ul media and treated with 500 ul of 50 uM cisplatin in media for 6 hours. After 6 hours, the cells were washed once with room temperature PBS and then fixed with 500 uL 4% formaldehyde in PBS for 12 min at room temperature. The cells were then washed 3 more times with PBS. Coverslips were put into a humidifying chamber or stored at 4° C. in PBS. Permeabilization of cells were performed using 0.5% Triton X-100 (Sigma Aldrich, X100) in PBS for 10 minutes followed by three PBS washes. Cells were blocked with 4% IgG-free Bovine Serum Albumin, BSA, (VWR, 102643-516) for 30 minutes and the primary antibody was added at a concentration of 1:500 in PBS for 4-16 hours. […]
For the analysis of co-immunofluorescence data, custom python scripts were written to both process and analyze the 3D image data from IF and DAPI channels. Nuclei were detected using the Triangle thresholding method and a nuclear mask was applied the IF channels. […] Percentage of cisplatin overlap was calculated by the number of defined nuclear cisplatin puncta that overlapped with the protein of interest puncta divided by the total number of nuclear cisplatin puncta.

The target of a further series is T2, MED1 aromatic mutant (Homo sapiens, UniProt Q15648, F1031A/F1273A/F1351A/F1564A/F657A/F708A/F713A/F724A/F821A/F826A/F858A/F859A/F865A/F878A/F883A/F895A/F898A/F920A/F931A/W1533A/Y1083A/Y1132A/Y1431A/Y1456A/Y1476A/Y1492A/Y661A/Y752A/Y835A/Y882A).
T2 construct: MED1—aromatic mutant amino acids 600-1581, all aromatic residues changed to alanine; 6xHis (N); made in house; host or cells: LOBSTR cells (E. coli)
As to the kind of experiment: In vitro droplet assay with MED1 aromatic mutant. It counts as binding. Particulars: 10% PEG, 125 mM NaCl, 10 μM protein, 5 μM small molecule. The protocol:
MED1—aromatic mutant amino acids 600-1581, all aromatic residues changed to alanine.
as §1
To analyze in vitro droplet experiments, custom Python scripts using the scikit-image package were written to identify droplets and characterize their size, shape and intensity. […] After segmentation, mean intensity for each droplet was calculated while excluding pixels near the phase interface, and background-corrected by subtracting intensity of dark images of droplet formation buffer only. Droplets identified in the channel of the fluorescent protein from ten independent fields of view were quantified for each experiment. The maximum intensity of signal within the droplets was calculated for each channel, the maximum intensity in the drug channel was termed “maximum drug intensity”. […]

Series [5] concerns super-enhancers in Hela cells. The conditions noted are these: cisplatin treated Hela cells, published data (41); cited from earlier work.

`N.N.[Cl][Pt][Cl]` [cisplatin]: the “DNA platination in MED1 versus HP1α condensates” value in series [1] was “more efficiently platinated in MED1 condensates than in HP1α condensates”. Further, at MED1, the “partitioning / incorporation into MED1 droplets” value is on record as “selectively concentrated in MED1 droplets”. In addition, the “droplet formation of small molecule alone” value in series [2] is “diffuse fluorescent signal”. Besides, the “MED1 ChIP-seq signal after cisplatin” value in series [3] is given as “preferential loss of MED1 ChIP-seq signal at super-enhancers; also recorded: reduced”. Also, the “colocalization of platinated DNA with nuclear condensates” value in series [4] is recorded as “frequently colocalized with MED1 condensates, but not with HP1α or FIB1 condensates”. Besides, the “partitioning into MED1 aromatic mutant droplets” value on MED1 aromatic mutant was “no longer partitioned; also recorded: substantially reduced”. The “location of cisplatin-modified DNA (platinated-DNA pull-down sequencing)” value in series [5] is “preferentially occurs at super-enhancers”.
